Assay results reported in EP2116236A1, “Bisbenzamidine derivatives for use as antioxidant” (Université de Mons-Hainaut, priority 2008, dated 2009).

Tests used:
[1] = superoxide dismutase activity: inhibition of pyrogallol auto-oxidation; assay type: biochemical; settings: for Percent inhibition of the rate of pyrogallol auto-oxidation: compound 0.5 mM, pyrogallol 0.750 mM, TRIS saline buffer pH 7.4, first two minutes, average of three measures
Method: The pyrogallol auto-oxidation was measured at 420 nm according to the procedure Marklund & Marklund as reported in Vamecq et al. (2003). The incubation medium comprised TRIS saline buffer at pH 7.4 (5 mM TRIS, 50 mM NaCl) with either the vehicle (DMSO) or one of the compounds (final concentration 0.5 mM ) dissolved in DMSO. The reaction was triggered by the addition of pyrogallol (0.750 mM).
The results are given as percent inhibition of the rate of pyrogallol auto-oxidation measured during the first two minutes.

audiogenic seizure = audiogenic seizure test in magnesium deficient animals; assay type: in vivo
Method: (§1) The tests were performed in rodents as described in J. Vamecq et al. Eur. J. Neurosc. 2003, 18, 1110. The results are shown in Table 1, wherein ScPtz refers to subcutaneous pentylenetetrazol, MES refers to Maximal Electroshock Seizures, MCS refers to Maximal Clonic Seizures, and ND means "not determined". The results are given as ED50 in mg/kg.

chemical seizure (scPtz) = experiment: subcutaneous pentylenetetrazol (scPtz) induced chemical seizure test; assay type: in vivo; settings: Mus musculus, ip
Method: as §1

[2] = tested on: electrical seizure MCS (6 Hz); experiment: Maximal Clonic Seizures (MCS) 6 Hz electroshock test; assay type: in vivo
Method: as §1

[3] = glutathione peroxidase activity: stimulation of peroxide-induced oxidation of reduced glutathione; assay type: biochemical; settings: for Effects of the compounds on the oxidation rate (%): average glutathione oxidation rate, vehicle control = 100 %, 2 mM reduced glutathione, 10 µl 50 mM compound in 1 mL, pH 7.4; for Glutathione peroxidase activity: 2 mM reduced Glutathione
Method: The activity of glutathione peroxidase compounds refers to the stimulation by the compounds of the peroxide-induced oxidation of reduced glutathione (H2O2, t-butyl-hydroperoxide or cumene hydroperoxide). […] The formation of oxidized glutathione results in the oxidation of NADPH in the presence of glutathione reductase. The NADPH oxidation is then measured and reflects the formation of oxidized glutathione. In view of the absorbance of the compounds, NADPH oxidation was measured by the fluorescent emission at 466 nm when excited at 366 nm, which a corrected quenching.
The glutathione oxidation was measured in the presence of NADPH and glutathione reductase in 1 ml cell by fluorimetry (λexcitation = 366 nm and λemission= 466 nm). The cell contained 1 mL of 10 mM phosphate buffer pH 7.4, 0.25 mM NADPH, 10 µl DMSO (or 10 µl 50 mM compound dissolved in DMSO), 2 mM reduced glutathione and two units of glutathione reductase (Saccharomyces cerevisiae). The reaction was triggered by the addition of peroxide (5 mM t-butyl-hydroperoxide). A stimulation of the rate of peroxide-induced oxidation of glutathione was considered as glutathione peroxidase activity.

[4] = tested on: electrical seizure MES (50 Hz); experiment: Maximal Electroshock Seizures (MES) test; assay type: in vivo; settings: Mus musculus, ip
Method: as §1

SMILES	Percent inhibition of the rate of pyrogallol auto-oxidation [1]	scavenging activity toward the superoxide anion ([1]; result in words)	audiogenic seizure (mouse ip) ED50 (audiogenic seizure)	ED50 (audiogenic seizure; mouse ip)	ED50 (chemical seizure (scPtz))	electrical seizure MCS (6 Hz) (mouse ip) ED50 [2]	ED50 ([2]; Mus musculus, ip)	Effects of the compounds on the oxidation rate (%) ([3]; 5 mM t-butyl-hydroperoxide)	Glutathione peroxidase activity ([3]; 2.5 mM cumene hydroperoxide)	Glutathione peroxidase activity ([3]; 2.5 mM hydrogen peroxide)	Glutathione peroxidase activity ([3]; 5 mM hydrogen peroxide)	Glutathione peroxidase activity ([3]; 5 mM t-butyl-hydroperoxide)	ED50 [4]
N=C(N)c1ccc(N)cc1 [4-aminobenzaminidine, 4-aminobenzamidine, reference compound]	< 5%	does not have any scavenging activity	–	–	–	–	–	–	–	–	–	–	–
N=C(N)c1ccc(NCCNc2ccc(C(=N)N)cc2)cc1 [Compound 2, 4,4'-(1,2-ethanediyldiimino)bisbenzenecarboximidamide]	36.3%	–	active	6.9 mg/kg	> 300 mg/kg	ED50 = 48.95 mg/kg	60 to 100 mg/kg	< 100%	–	–	–	–	–
CN(CCN(C)c1ccc(C(=N)N)cc1)c1ccc(C(=N)N)cc1 [Compound 3, 4,4'-[1,2-ethanediyl (N,N'-dimethyl bisnitrilo)]bis(benzenecarboximidamide)]	51.0%	–	little activity at non toxic doses	–	> 300 mg/kg	–	–	197%	128%	117%	108%	197%	–
CN(CCNc1ccc(C(=N)N)cc1)c1ccc(C(=N)N)cc1 [Compound 4, 4,4'-(N-methyl 1,2-ethanediyldiimino)bis(benzenecarboximidamide)]	17.5%	–	little activity at non toxic doses	–	> 100 mg/kg	–	–	107%	–	–	–	–	> 100 mg/kg
CCN(CCNc1ccc(C(=N)N)cc1)c1ccc(C(=N)N)cc1 [Compound 5, 4,4'-(N-ethyl-1,2-ethanediyldiimino)bis(benzenecarboximidamide)]	28.8%	–	little activity at non toxic doses	–	> 30 mg/kg	–	–	105%	–	–	–	–	–
